# Measurements from patent US20240277754A1, “IMMUNO-ONCOLOGY THERAPEUTIC COMPOSITION USING ADJUVANT INCLUDING LIPOPEPTIDES AND POLY (I:C)” (CHA VACCINE RESEARCH INSTITUTE CO., LTD, priority 2021, published 2024).
# Tested on: MC38 mouse colon cancer cells
# Experiment: Tumor suppressive efficacy in combination with other TLR ligands or saponin, colon cancer mouse model
# Format: in vivo, C57BL/6 mice
# Details: L-pampo 45 μg/dose, QS21 10 μg/dose, Imiquimod 10 μg/dose, intratumoral four times at 3-day intervals, D20, 12 days after start
# Method: Tumors were generated in mice by subcutaneous injection of 1×10^5 MC38 mouse colon cancer cells into the right flank of 8-week-old female C57BL/6 mice (OrientBio, Korea). The immuno-oncology drug L-pampo was prepared by mixing 25 μg of Pam3CSK4 and 20 μg of poly(I:C). […] This was administered into the tumor four times at 3-day intervals. Tumor sizes for all experimental groups were measured every three days. The long and short axes of the tumor were measured, and the size of the tumor was calculated as [½×size of the long axis×(size of the short axis)^2]. The tumor suppressive efficacy was analyzed based on the calculated tumor size.
row,Compound,size of the tumor reduced compared to negative control (buffer)
1,CC(C)Cn1cnc2c(N)nc3ccccc3c21 [imiquimod],about 39%
2,QS-21,about 57%
